Results reported in PubChem BioAssay AID2742 (NMMLSC, 2010).
Several values for one entry are separate records, joined by “and”; a condition that tells them apart may be missing. Identical values can stand only once. Activity calls are given as the source filed them.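 Rule for the calls: active = fitted half-maximal concentration for changing background-corrected GFP signal at or below a set limit; inactive = the rest.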

Experiment: modulators of MEP2-GFP levels in yeast, dose response, S. cerevisiae, flow cytometry GFP, MLPCN hits (AID 2742);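 note: GFP tag reports level of MEP2 protein as a downstream target of TOR signalling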
Conditions: S. cerevisiae MEP2-GFP strain, flow cytometry fluorescence, 3 h; at 33 µM (top of the series)

SMILES	GFP fluorescence (kMESF), higher = increase
O=C(Nc1ccc(Cl)cc1Cl)c1cccc(N2C(=O)C=CC2=O)c1	4.39 kMESF (inactive)
CSC1=NS(=O)(=O)c2c(C)nn(C)c2S1	4.13 kMESF (inactive)
Cc1ccc(C(c2cc(Cl)c3cccnc3c2O)N2CCN(C)CC2)cc1 (stereo not drawn)	3.22 kMESF (inactive)
CCOC(=O)C(C(=O)OCC)C(C(=O)OCC)N1CCOCC1 (stereo not drawn)	4.83 kMESF (inactive)
O=C(c1ccc([N+](=O)[O-])o1)N1CCN(c2nc3c(F)cc(F)cc3s2)CC1	-3.51 kMESF (inactive)
COc1ccc(C(=O)NC(=S)NNC(=O)c2cnccn2)cc1OC	2.46 kMESF (inactive)
Cc1ccc(NC(=O)CCc2ccccc2)cc1S(=O)(=O)N1CCOCC1	1.72 kMESF (inactive)
O=C(COc1ccc(F)cc1Cl)Nc1nc(-c2ccccn2)cs1	4.88 kMESF (inactive)
O=C1NC(=O)N(CCc2ccc(F)cc2)C(=O)/C1=C/c1cccs1	4.39 kMESF (inactive)
CC(C)(C)C(=O)NC(=S)NNC(=O)c1ccc(-c2ccccc2)cc1	3.92 kMESF (inactive)
Cc1cc(=O)n2c3c(sc2n1)C(=O)N(Cc1ccccc1)C3=O	2.89 kMESF (inactive)
O=C1c2cccc3c([N+](=O)[O-])ccc(c23)C(=O)N1c1ccccn1	12.2 kMESF (inactive)
Oc1ccc(COCc2ccccc2)c2cccnc12	6.91 kMESF (inactive)
Cc1cc(=O)oc2cc(Oc3ccc([N+](=O)[O-])cc3C(F)(F)F)ccc12	2.42 kMESF (inactive)
CC1=C(C)/C(=N\OS(=O)(=O)c2ccc(C)cc2)C=CC1=O	4.38 kMESF (inactive)
O=C(/C=C/c1ccccc1)NC(=S)NNC(=O)Cc1cccs1	2.02 kMESF (inactive)
O/C=c1\ccc2cccc3nc(C(F)(F)F)nc1c23	14.3 kMESF (inactive)
O=C(O)c1ccccc1SC1CC(=O)N(c2ccc3c(c2)OCO3)C1=O (stereo not drawn)	3.4 kMESF (inactive)
CC(=O)N(C(C)=O)c1ncnc2c1c(-c1ccc(Cl)cc1)nn2C(C)(C)C	1.85 kMESF (inactive)
Cc1nn2c(-c3ccncc3)nnc2c2ccccc12	1.97 kMESF (inactive)
O=C(Cc1ccc(Cl)cc1)NNC(=S)NC(=O)c1cccs1	6.72 kMESF (inactive)

SMILES	GFP fluorescence (kMESF), higher = increase
CCc1cccc2sc(N3CCN(C(=O)c4ccc([N+](=O)[O-])o4)CC3)nc12	0.16 kMESF (inactive)
Cc1ccc(C2=NN(S(C)(=O)=O)C(c3ccc4c(c3)OCO4)C2)cc1 (stereo not drawn)	2.44 kMESF (inactive)
CCCCC(=O)NC(=S)NNC(=O)CCc1ccccc1	3.11 kMESF (inactive)
C[C@@H]1C[C@@H]([C@H](O)CC2CC(=O)NC(=O)C2)C(=O)[C@@H](C)C1	3.27 kMESF (inactive)
C=CCOc1ccccc1C(=O)/C=C1/C(=O)Nc2ccccc21	3.91 kMESF (inactive)
Cc1ccc(/C=C2/SC(=S)N(C3CCCCC3)C2=O)o1	4.94 kMESF (inactive)
COc1cc(/C=C2\C(=O)N(CCC#N)N=C2C)c(Br)cc1OC(C)C	4.57 kMESF (inactive)
CCOC(=O)c1ccc(N=Cc2nc(-c3ccccc3)oc2OC(C)=O)cc1	5.65 kMESF (inactive)
CC(C)(C)C(=O)C(Cl)C(=O)Nc1ccccc1 (stereo not drawn)	4.12 kMESF (inactive)
CCCCC(=O)NNC(=S)NC(=O)c1ccc(C)cc1	4.34 kMESF (inactive)
Cc1cccnc1Nc1nc(-c2ccccn2)cs1	2.08 kMESF (inactive)
O=C1C(Cl)=C(Nc2ccccc2O)C(=O)N1CCc1ccccc1	3.11 kMESF (inactive)
CCOC(=O)c1c(C)oc2c1c(C(c1ccncc1)N1CCOCC1)c(O)c1ccccc12 (stereo not drawn)	2.42 kMESF (inactive)
Cc1ccc(-c2nc(C)sc2CC(=O)Nc2nnc(C)s2)cc1	1.85 kMESF (inactive)
O=C(/C=C/c1ccc(Cl)c([N+](=O)[O-])c1)c1cccnc1	3.17 kMESF (inactive)
O=C1N(c2ccccc2C(F)(F)F)OC1(Cc1ccccc1)c1ccccc1 (stereo not drawn)	2.86 kMESF (inactive)
O=C1CC(c2ccccc2)=NN1c1nc(-c2ccccc2)cs1	2.83 kMESF (inactive)
CCN(CC)c1ccc2cc(-c3nc(-c4ccc(OC)cc4)cs3)c(=O)oc2c1	0.72 kMESF (inactive)
COc1ccc([C@]2(C(C)C)ON(c3ccccc3C(F)(F)F)C2=O)cc1	2.67 kMESF (inactive)
Cc1ccc(C(=O)Sc2cccccc2=O)cc1	3.82 kMESF (inactive)
Cc1cccc(N2C(=O)C(Cl)=C(Nc3c(C)n(C)n(-c4ccccc4)c3=O)C2=O)c1C	3.31 kMESF (inactive)

SMILES	GFP fluorescence (kMESF), higher = increase
O=C1C=CC(=O)N1c1cccc(-c2ccccc2)c1	5.31 kMESF (inactive)
O=S(=O)(c1ccccc1)c1ccc(C(F)(F)F)cn1	2.27 kMESF (inactive)
N/C(Cc1ccc(Cl)c(Cl)c1)=N\OC(=O)c1cccs1	3.66 kMESF (inactive)
O=C(O)c1cc[c]([Hg][Cl])cc1	4.47 kMESF (inactive)
COc1cc(/C=C2/C(=O)c3cccc([N+](=O)[O-])c3C2=O)c(Br)cc1O	3.18 kMESF (inactive)
CC(C)(C)n1nc(-c2ccc(F)cc2)c2c(N)ncnc21	4.89 kMESF (inactive)
Cc1[nH]c2ccccc2c1C(=O)COC(=O)c1ccc([N+](=O)[O-])s1	0.4 kMESF (inactive)
CCOC(=O)c1c(C)oc2c1c(C(c1cccnc1)N1CCOCC1)c(O)c1ccccc12 (stereo not drawn)	4.43 kMESF (inactive)
CCCCCn1c(=O)c(C(=O)Nc2nc3ccccc3[nH]2)c(O)c2ccccc21	1.97 kMESF (inactive)
CCCOc1ccc(C(=O)NNC(=S)NC(=O)c2ccco2)cc1	4.58 kMESF (inactive)
Cc1ccc(N/N=C(\C#N)C(N)=S)c(C)c1	4.52 kMESF (inactive)
COc1ccc(-c2cc3nc4n(c(=O)c3s2)CCC4)cc1	1.07 kMESF (inactive)
Oc1ccc(N=Nc2ccccc2)o1	4.33 kMESF (inactive)
N=C1/C(=C\c2coc3ccccc3c2=O)C(=O)N=C2SC(c3ccncc3)=NN12	-3.13 kMESF (inactive)
Cc1ccc(NC(=O)c2cc(N3C(=O)C=CC3=O)ccc2N2CCOCC2)cc1Cl	1.96 kMESF (inactive)
O=C1NC(=O)N(Cc2ccco2)C(=O)/C1=C/c1ccc(-c2cccc([N+](=O)[O-])c2)o1	4.33 kMESF (inactive)
COCCN1C(=O)/C(=C/c2ccc(N3CCCC3)cc2C)SC1=S	7.22 kMESF (inactive)
O=C1C=C(c2ccccc2)C(=O)N1Nc1ccccc1	6.2 kMESF (inactive)
CC1=NNC(=O)/C1=C\c1cn(-c2ccccc2)nc1-c1ccccc1	3.11 kMESF (inactive)
COc1cccc(/C=N/Nc2ncc(C(F)(F)F)cc2Cl)c1O	3.26 kMESF (inactive)
O=C(OCC(=O)N1CCN(C(=O)c2ccco2)CC1)c1cc(-c2ccccc2)nc2ccccc12	3.96 kMESF (inactive) and 2.66 kMESF (inactive)

SMILES	GFP fluorescence (kMESF), higher = increase
N#Cc1nccnc1S(=O)(=O)c1cccs1	2.29 kMESF (inactive)
CCCCOc1ccc(C(=O)NNC(=S)NC(=O)CC)cc1	6.17 kMESF (inactive)
N#Cc1cc([N+](=O)[O-])c(-n2nnc3ccccc32)c([N+](=O)[O-])c1	3.54 kMESF (inactive)
Cc1ccc(NC(=O)c2nc(S(=O)(=O)Cc3ccccc3)ncc2Cl)cc1	3.33 kMESF (inactive)
CC(=O)Oc1ccc(N2C(=O)C3C4C=CC(O4)C3C2=O)cc1 (stereo not drawn)	3.13 kMESF (inactive)
COc1cccc(/C=C2\C(=O)N(c3cccc(C)c3)C(=O)c3ccccc32)c1	4.32 kMESF (inactive)
Cc1ccc(S(=O)(=O)c2ncccc2[N+](=O)[O-])cc1	3.64 kMESF (inactive)
Cc1cc(C)c(S(=O)(=O)ON2C(=O)c3ccccc3C2=O)cc1C	3.17 kMESF (inactive)
Cc1ccc(C(=O)O)cc1N=Cc1cc(Br)cc(Br)c1O	5.7 kMESF (inactive)
Cc1cccc(C)c1NC(=O)C(Cl)C(=O)c1ccccc1 (stereo not drawn)	4.47 kMESF (inactive)
O=C(OCn1ncc(Br)c(Br)c1=O)c1ccc(F)cc1	5.15 kMESF (inactive)
O=c1c(-c2ccc(Cl)cc2)[n+]([O-])c2ccccc2n1O	24.9 kMESF (inactive)
Cc1ccc(S(=O)(=O)N2CCCC2C(=O)NCc2ccncc2)cc1 (stereo not drawn)	2.1 kMESF (inactive)
O=C(/C=C/c1ccccc1)c1cc(Br)ccc(=O)c1O	-11.3 kMESF (inactive)
CCCc1ccc(OCC(=O)NNC(=S)NC(=O)c2ccco2)cc1	9.05 kMESF (inactive)
O=C(Nc1ccc(N2CCOCC2)cc1)C1CCN(S(=O)(=O)c2ccc3c(c2)OCCO3)CC1	2 kMESF (inactive)
COc1ccc2c(c1)c(/C=C/c1cc[n+](C)cc1)cn2C	4.56 kMESF (inactive)
C#CCOCCOCCOCCNc1nc(N2CCN(C(=O)CCCCCCCCCCNC(=O)[C@H](CCCCN)n3cc(C)nn3)CC2)nc(N2CCN(C(=O)CCCCCCCCCCNC(=O)[C@H](CCCN=C(N)N)n3cc(C[C@@H](C)CC)nn3)CC2)n1	3.34 kMESF (inactive)
COc1ccc(N2CCN(C(=O)c3ccccc3)CC2)c([N+](=O)[O-])c1	3.33 kMESF (inactive)
CC1(C(=O)NC(=S)NNC(=O)c2ccncc2)CCCCC1	3.51 kMESF (inactive)
